Assay results published in US20240398805A1, “QUINAZOLINE DERIVED COMPOUNDS AS EGFR INHIBITORS AND THEIR USES THEREOF” (ACCUTAR BIOTECHNOLOGY INC., priority 2021, published 2024).

Legend:
Type in all cases: cell-based
[1] = tested on: HCC827-ASV cells (human EGFR exon 20 insertion mutant A769_D770insASV); assay: Cell growth inhibition (CellTiter-Glo, 3 days) in HCC827-ASV; conditions: 72 h, 3 days after administration
How it was run: (§1)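 HCC827 cells lentivirally transduced with codon-optimized ASV or YVMA insertion mutants were seeded at 5000 cells/well in RPMI with 10% FBS and incubated overnight. Compound was added at various concentrations from a 10× stock in medium, with 3 days' incubation. Viability read by CellTiter-Glo luminescence.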

[2] = tested on: HCC827-SVD cells (human EGFR exon 20 insertion mutant D770_N771 insSVD); assay: Cell growth inhibition (CellTiter-Glo, 3 days) in HCC827-SVD; conditions: 72 h, 3 days after administration
How it was run: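 HCC827 cells carrying lentiviral codon-optimized EGFR D770_N771 insSVD, with endogenous EGFR knocked out by CRISPR (single clone), seeded at 5000 cells/well in RPMI with 10% FBS. Viability read by CellTiter-Glo luminescence.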

[3] = tested on: HCC827-YVMA cells (human ERBB2 exon20 insertion mutant A775_G776ins YVMA); assay: Cell growth inhibition (CellTiter-Glo, 3 days) in HCC827-YVMA; conditions: 72 h, 3 days after administration
How it was run: as §1

[4] = tested on: A431 cells; assay: Cell growth inhibition (CellTiter-Glo, 3 days) in A431; conditions: Homo sapiens, A-431, 72 h, 3 days after administration
How it was run: (§2)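 HCC827 cells were plated at 5000 cells/well in RPMI with 10% FBS, and A431 cells at the same density in DMEM with 10% FBS. After overnight attachment, compounds were added at various concentrations. Luminescence was recorded after plates were equilibrated to room temperature and incubated 10 min with reagent.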

[5] = tested on: HCC827 cells; assay: Cell growth inhibition (CellTiter-Glo, 3 days) in HCC827; conditions: Homo sapiens, 72 h, 3 days after administration
How it was run: as §2

Row | SMILES | GI50 [1] [nM] | GI50 [2] [nM] | GI50 [3] [nM] | GI50 [4] [nM] | GI50 [5] [nM]
1 | C=CC(=O)N1CCC(Oc2cc3c(Nc4ccc(Oc5ccnc(N6CC[C@@H](N(C)C)C6)c5)cc4F)ncnc3cc2OC)CC1 [Example 162, (R)-1-(4-((4-((4-((2-(3-(dimethylamino)pyrrolidin-1-yl)pyridin-4-yl)oxy)-2-fluorophenyl)amino)-7-methoxyquinazolin-6-yl)oxy)piperidin-1-yl)prop-2-en-1-one] | 100 to 300 | 100 to 300 | 100 to 300 | ≥ 1000 | 100 to 300
2 | C=CC(=O)N1CCC(Oc2cc3c(Nc4ccc(Oc5ccnc(N6C[C@H](OC)[C@H](OC)C6)c5)cc4F)ncnc3cc2OC)CC1 [Example 163, 1-(4-((4-((4-((2-((3R,4S)-3,4-dimethoxypyrrolidin-1-yl)pyridin-4-yl)oxy)-2-fluorophenyl)amino)-7-methoxyquinazolin-6-yl)oxy)piperidin-1-yl)prop-2-en-1-one] | 30 to 60 | 30 to 60 | 100 to 300 | ≥ 1000 | ≥ 1000
3 | C=CC(=O)N1CCC(Oc2cc3c(Nc4ccc(Oc5cc(N6C[C@@H](C)O[C@@H](C)C6)ncc5Cl)cc4F)ncnc3cc2OC)CC1 [Example 166, 1-(4-((4-((4-((5-chloro-2-((2R,6S)-2,6-dimethylmorpholino)pyridin-4-yl)oxy)-2-fluorophenyl)amino)-7-methoxyquinazolin-6-yl)oxy)piperidin-1-yl)prop-2-en-1-one] | 100 to 300 | ≥ 1000 | 300 to 600 | ≥ 1000 | 300 to 600
4 | C=CC(=O)Nc1cc2c(Nc3ccc(Oc4ccnc(-c5nc(C)cs5)c4)cc3F)ncnc2cc1OCC [Example 168, N-(7-ethoxy-4-((2-fluoro-4-((2-(4-methylthiazol-2-yl)pyridin-4-yl)oxy)phenyl)amino)quinazolin-6-yl)acrylamide] | ≥ 1000 | 300 to 600 | ≥ 1000 | ≥ 1000 | ≥ 1000
5 | C=CC(=O)Nc1cc2c(Nc3ccc(Oc4ccnc(N5C[C@@H](C)O[C@@H](C)C5)c4)cc3F)ncnc2cc1OCC [Example 169, N-(4-((4-((2-((2S,6R)-2,6-dimethylmorpholino)pyridin-4-yl)oxy)-2-fluorophenyl)amino)-7-ethoxyquinazolin-6-yl)acrylamide] | ≥ 1000 | ≥ 1000 | ≥ 1000 | ≥ 1000 | ≥ 1000
6 | C=CC(=O)N1CCC(Nc2cc3c(Nc4ccc(Oc5ccnc(N6CC[C@H](O)[C@H](F)C6)c5)cc4F)ncnc3cc2OC)CC1 [Example 170, 1-(4-((4-((2-fluoro-4-((2-((3R,4S)-3-fluoro-4-hydroxypiperidin-1-yl)pyridin-4-yl)oxy)phenyl)amino)-7-methoxyquinazolin-6-yl)amino)piperidin-1-yl)prop-2-en-1-one] | 60 to 100 | 60 to 100 | 100 to 300 | ≥ 1000 | 600 to 1000
7 | C=CC(=O)N1CCC(Nc2cc3c(Nc4ccc(Oc5ccnc(N6CCC(O)C(C)(C)C6)c5)cc4F)ncnc3cc2OC)CC1 (stereo not drawn) [Example 171, 1-(4-((4-((2-fluoro-4-((2-(4-hydroxy-3,3-dimethylpiperidin-1-yl)pyridin-4-yl)oxy)phenyl)amino)-7-methoxyquinazolin-6-yl)amino)piperidin-1-yl)prop-2-en-1-one] | 30 to 60 | 30 to 60 | 30 to 60 | 600 to 1000 | 300 to 600
8 | C=CC(=O)N1CCC(Nc2cc3c(Nc4ccc(Oc5ccnc(N6CC[C@@H](O)C6)c5)cc4F)ncnc3cc2OC)CC1 [Example 173, (R)-1-(4-((4-((2-fluoro-4-((2-(3-hydroxypyrrolidin-1-yl)pyridin-4-yl)oxy)phenyl)amino)-7-methoxyquinazolin-6-yl)amino)piperidin-1-yl)prop-2-en-1-one] | 60 to 100 | 100 to 300 | 100 to 300 | ≥ 1000 | 300 to 600
9 | C=CC(=O)N1CCC(Nc2cc3c(Nc4ccc(Oc5ccnc(N6CC[C@H](O)C6)c5)cc4F)ncnc3cc2OC)CC1 [Example 174, (S)-1-(4-((4-((2-fluoro-4-((2-(3-hydroxypyrrolidin-1-yl)pyridin-4-yl)oxy)phenyl)amino)-7-methoxyquinazolin-6-yl)amino)piperidin-1-yl)prop-2-en-1-one] | 100 to 300 | 100 to 300 | 100 to 300 | ≥ 1000 | 600 to 1000
10 | C=CC(=O)N1CCC(Nc2cc3c(Nc4ccc(Oc5ccnc(N6CC7(CC(O)C7)C6)c5)cc4F)ncnc3cc2OC)CC1 [Example 175, 1-(4-((4-((2-fluoro-4-((2-(6-hydroxy-2-azaspiro[3.3]heptan-2-yl)pyridin-4-yl)oxy)phenyl)amino)-7-methoxyquinazolin-6-yl)amino)piperidin-1-yl)prop-2-en-1-one] | 30 to 60 | 30 to 60 | 30 to 60 | ≥ 1000 | 600 to 1000

Now from value to compound:

Row | GI50 [1] [nM] | GI50 [2] [nM] | GI50 [3] [nM] | GI50 [4] [nM] | GI50 [5] [nM] | SMILES
11 | < 30 | < 30 | < 30 | 300 to 600 | 100 to 300 | C=CC(=O)N1CCC(Nc2cc3c(Nc4ccc(Oc5ccnc(N6CC(C(F)(F)F)C6)c5)cc4F)ncnc3cc2OC)CC1 [Example 161, 1-(4-((4-((2-fluoro-4-((2-(3-(trifluoromethyl)azetidin-1-yl)pyridin-4-yl)oxy)phenyl)amino)-7-methoxyquinazolin-6-yl)amino)piperidin-1-yl)prop-2-en-1-one]
12 | < 30 | < 30 | < 30 | 600 to 1000 | 300 to 600 | C=CC(=O)N1CCC(Nc2cc3c(Nc4ccc(Oc5ccnc(N6CCC[C@@H](OC)C6)c5)cc4F)ncnc3cc2OC)CC1 [Example 164, (R)-1-(4-((4-((2-fluoro-4-((2-(3-methoxypiperidin-1-yl)pyridin-4-yl)oxy)phenyl)amino)-7-methoxyquinazolin-6-yl)amino)piperidin-1-yl)prop-2-en-1-one]
13 | < 30 | < 30 | < 30 | 600 to 1000 | 300 to 600 | C=CC(=O)N1CCC(Nc2cc3c(Nc4ccc(Oc5ccnc(N6CCC(O)C(F)(F)C6)c5)cc4F)ncnc3cc2OC)CC1 (stereo not drawn) [Example 172, 1-(4-((4-((4-((2-(3,3-difluoro-4-hydroxypiperidin-1-yl)pyridin-4-yl)oxy)-2-fluorophenyl)amino)-7-methoxyquinazolin-6-yl)amino)piperidin-1-yl)prop-2-en-1-one]
14 | < 30 | 30 to 60 | < 30 | 600 to 1000 | 100 to 300 | C=CC(=O)N1CCC(Nc2cc3c(Nc4ccc(Oc5ccnc(-c6nc(C)c(C)s6)c5)cc4F)ncnc3cc2OC)CC1 [Example 176, 1-(4-((4-((4-((2-(4,5-dimethylthiazol-2-yl)pyridin-4-yl)oxy)-2-fluorophenyl)amino)-7-methoxyquinazolin-6-yl)amino)piperidin-1-yl)prop-2-en-1-one]
15 | < 30 | < 30 | < 30 | 300 to 600 | 100 to 300 | C=CC(=O)N1CCC(Nc2cc3c(Nc4ccc(Oc5ccnc(-c6nc(C)sc6C)c5)cc4F)ncnc3cc2OC)CC1 [Example 177, 1-(4-((4-((4-((2-(2,5-dimethylthiazol-4-yl)pyridin-4-yl)oxy)-2-fluorophenyl)amino)-7-methoxyquinazolin-6-yl)amino)piperidin-1-yl)prop-2-en-1-one]
